How the values were obtained:
α1 receptors = assay: Anti-α1 action: norepinephrine-induced tonic contraction of isolated thoracic aorta; conditions: tonic contraction by 10^−5 M norepinephrine taken as 100%, guinea pig thoracic aorta
Method: The thoracic aorta of each Hartley male guinea pig (body weight: 300-500 g) was excised. A preparation cut in a helical form was suspended under 1 g load in a Magnus cylinder filled with the Tyrode solution which had been aerated with a gas mixture of 95% O2 and 5% CO2 and maintained at 37° C. Using an isometric transducer (“TB-612J”, manufactured by Nihon Kohden Corporation) and a pressure preamplifier (“AP-620G”, manufactured by Nihon Kohden Corporation), variations in tension were measured. The isometric tensions were recorded on a thermal pen-writing recorder (“WT-647G”, manufactured by Nihon Kohden Corporation). Taking the tonic contraction induced by 10^−5 M norepinephrine (NE) as 100%, the percent contractions upon addition of each test drug at 10^−8 M and 10^−7 M were determined and recorded as α1 action.

serotonin-2 receptors = assay: Anti-serotonin (5-HT) action: 5-HT-induced contraction of isolated superior mesenteric artery; conditions: contraction by 10^−5 M 5-HT taken as 100%, guinea pig superior mesenteric artery
Method: (2) Anti-serotonin (5-HT) Action
A preparation cut in a helical form was suspended under resting tension of 0.3 g in a Magnus cylinder filled with the Tyrode solution which had been aerated with a gas mixture of 95% O2 and 5% CO2 and maintained at 37° C. Using an isometric transducer (“UL-10”, manufactured by SHINKOH K.K.) and a pressure preamplifier (“DSA-605A”, manufactured by SHINKOH K.K.), variations in tension were measured. The isometric tensions were recorded on a pen-writing recorder (“VP-6537A”, manufactured by NATIONAL K.K.). Taking the contraction induced by 10^−5 M serotonin (5-HT) as 100%, the percent contractions by 10^−5 M 5-HT in the presence of each test drug at 10^−7 M and 10^−6 M were determined as anti-5-HT action.

SMILES | Anti α1 action (% of Control) (α1 receptors; test drug 10^−7 M) | Anti α1 action (% of Control) (α1 receptors; test drug 10^−8 M) | Anti 5-HT action (% of Control) (serotonin-2 receptors; test drug 10^−6 M) | Anti 5-HT action (% of Control) (serotonin-2 receptors; test drug 10^−7 M)
CN1CC(=O)c2c(ccn2CCCCN2CCC(C(=O)c3ccc(F)cc3)CC2)S1(=O)=O [Compound 22, 5-[4-[4-(4-fluorobenzoyl)piperidino]butyl]-2-methyl-2,3,4,5-tetrahydropyrrolo[2,3-e][1,2]thiazin-4-one 1,1-dioxide] | 43.2 % of Control | 66.6 % of Control | 41.1 % of Control | 80.4 % of Control
CN1CC(=NO)c2c(ccn2CCCCN2CCC(C(=O)c3ccc(F)cc3)CC2)S1(=O)=O [Compound 28, 5-[4-[4-(4-fluorobenzoyl)piperidino]-butyl]-4-hydroxyimino-2-methyl-2,3,4,5-tetrahydropyrrolo[2,3-e][1,2]thiazine 1,1-dioxide] | 45.8 % of Control | 80.0 % of Control | 30.2 % of Control | 73.5 % of Control
CN1CCC(=NO)c2c(ccn2CCCCN2CCC(C(=O)c3ccc(F)cc3)CC2)S1(=O)=O [Compound 29, 6-[4-[4-(4-fluorobenzoyl)piperidino]-butyl]-5-hydroxyimino-2-methyl-3,4,5,6-tetrahydro-2H-pyrrolo[2,3-f][1,2]thiazepine 1,1-dioxide] | 33.4 % of Control | 83.1 % of Control | 32.5 % of Control | 79.0 % of Control

Reference: patent US6743913B2, “Pyrrolothiazine and pyrrolothiazepine compounds having serotonin-2 receptor antagonistic and α-1-blocking action” (Daiichi Suntory Pharma Co., Ltd., priority 1997, dated 2004)
